From patent US20120178738A1, “DIBENZO [B,F] [1,4]OXAZAPINE COMPOUNDS” (ARYX THERAPEUTICS, INC., priority 2007, published 2012)
Like-named read-outs stand apart in the source and are kept apart here.

Key:
[1] = biological target: T1, 5-HT2A receptor (Rattus norvegicus, UniProt P14842); assay: cell-based
T1 construct: Eight strips of tissue (0.5 cm long) were cut. and were mounted in 10 ml organ baths; tissue Charles River Laboratories; host or cells: rat aorta strips, endothelium removed
Procedure: The rat aorta (approximately 7 cm) was isolated and removed from the animal (male Sprague Dawley rat, Charles River Laboratories, Hollister, Calif.). The endothelium was removed mechanically. Eight strips of tissue (0.5 cm long) were cut. and were mounted in 10 ml organ baths kept at 37° C. with Krebs solution (composition in mM: NaCl (118.2), KCl (4.6), CaCl2 (2.5), MgSO4 (1.2), KH2PO4 (1.2), NaHCO3 (24.8) and dextrose (10.0)) that was constantly aerated with carbogen gas (95% O2/5% CO2) to obtain a pH of 7.4. The tissues were subjected to a resting tension of 2 g (3 times, 15 minutes apart, equilibrated in Krebs solution). The tissues were then washed 15 minutes later. Ten minutes later, the tissues were then exposed to 0.1 μM phenylephrine. At the maximal effect, 1 μM acetylcholine was added to confirm the absence of endothelium and then washed twice, 2 minutes apart.
Contractions were recorded as changes in tension from baseline and expressed as a percentage of the maximum response of the agonist (5-HT) concentration-effect curve. Agonist concentration-response curves were fitted using a nonlinear iterative fitting program (GraphPad Prism) using the relationship of Parker and Waud (Parker, R. B. and Waud, D. R. (1971). Pharmacological estimation of drug-receptor dissociation constants. Statistical evaluation. I. Agonists. J. Pharmacol. Exp. Ther., 177, 1-12). Agonist potency was expressed as EC50 (molar concentration of agonist producing 50% of the maximum response). Concentration-ratios (CRs) were determined from EC50 values in the presence and absence of antagonist and antagonist affinity estimates (pKB and pA2 values) were determined. All data are expressed as mean±s.e. mean.

[2] = biological target: T2, human D2s dopamine receptors (Homo sapiens, UniProt P14416); assay: hD2S receptor radioligand binding ([3H]spiperone); details: pKi reported on a scale of 1 through 5
T2 construct: expressed in transfected cells; host or cells: Chinese hamster ovary cells (membranes)
Procedure: (§1) Consistent with standard competition radioligand binding assays, the methodology was based on displacement of radioligand from tissues (or cell lines) bearing the receptor of interest (Cheng, Y. and Prusoff, W. H. (1973). Biochem. Pharmacol. 22, 3099-3108). The measurements were based on the binding of a single concentration of radiolabeled ligand in the presence of various concentrations of unlabeled ligand.
(§2) Tissues (or cellular plasma membrane fractions) were incubated in the presence of radioligand at equilibrium and in the presence of a range of concentrations of the test compounds (which were non-radiolabeled), and the displaced radioligand was separated from the membranes by filtration. Nonspecific binding was assessed by measuring displacement of the radioligand in the presence of a compound known to block binding of the radioligand to the receptor. Finally, the concentration-response relationship for radioligand displacement (corrected for non-specific binding) was used to assess binding of the test compound to the receptor.

[3] = biological target: T3, human D2L dopamine receptors (Homo sapiens, UniProt P14416); assay: hD2L receptor radioligand binding ([3H]spiperone); details: pKi reported on a scale of 1 through 5; read-out: D2L (pKi) (converted)
T3 construct: expressed in transfected cells; host or cells: insect Sf9 cells (membranes)
Procedure: as §1, §2

[4] = biological target: T4, human 5HT1A receptors (Homo sapiens, UniProt P08908); assay: h5-HT1A receptor radioligand binding ([3H]8OH-DPAT); details: pKi reported on a scale of 1 through 5
T4 construct: expressed in transfected cells; host or cells: Chinese hamster ovary cells (membranes)
T4 sequence (P08908 1-422): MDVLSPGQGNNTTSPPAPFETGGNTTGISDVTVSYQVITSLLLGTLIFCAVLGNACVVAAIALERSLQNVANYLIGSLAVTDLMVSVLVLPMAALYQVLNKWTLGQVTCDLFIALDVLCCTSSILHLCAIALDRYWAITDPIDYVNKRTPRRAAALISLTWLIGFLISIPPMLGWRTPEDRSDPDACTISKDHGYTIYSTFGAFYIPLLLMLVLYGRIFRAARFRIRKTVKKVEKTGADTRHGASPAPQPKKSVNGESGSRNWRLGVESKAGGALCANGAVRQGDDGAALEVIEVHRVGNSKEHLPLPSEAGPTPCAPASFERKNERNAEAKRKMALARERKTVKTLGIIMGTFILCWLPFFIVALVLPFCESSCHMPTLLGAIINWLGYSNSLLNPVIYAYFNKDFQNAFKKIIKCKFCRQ
Procedure: as §1, §2

[5] = biological target: T5, human 5HT2C receptors (Homo sapiens, UniProt P28335); assay: h5-HT2C receptor radioligand binding ([3H]Mesulergine); details: pKi reported on a scale of 1 through 5
T5 construct: expressed in transfected cells; host or cells: human embryo kidney cells (membranes)
T5 sequence (P28335 33-458): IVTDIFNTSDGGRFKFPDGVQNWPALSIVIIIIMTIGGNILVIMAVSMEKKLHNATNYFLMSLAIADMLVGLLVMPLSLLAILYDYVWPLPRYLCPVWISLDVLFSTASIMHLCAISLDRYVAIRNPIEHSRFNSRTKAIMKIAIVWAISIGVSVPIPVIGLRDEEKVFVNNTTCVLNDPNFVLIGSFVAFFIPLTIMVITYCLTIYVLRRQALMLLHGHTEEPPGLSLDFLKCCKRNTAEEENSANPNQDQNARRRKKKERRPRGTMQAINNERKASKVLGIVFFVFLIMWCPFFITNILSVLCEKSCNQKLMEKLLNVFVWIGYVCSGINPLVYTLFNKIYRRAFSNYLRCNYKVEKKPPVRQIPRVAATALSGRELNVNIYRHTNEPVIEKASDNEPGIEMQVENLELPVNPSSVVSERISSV
Procedure: The measurements were based on the binding of a single concentration of radiolabeled ligand in the presence of various concentrations of unlabeled ligand.
as §2

[6] = biological target: T6, human M3 receptors (Homo sapiens, UniProt P20309); assay: hM3 receptor radioligand binding ([3H]NMS)
T6 construct: expressed in transfected cells; host or cells: Chinese hamster ovary cells (membranes)
Procedure: as §1, §2

[7] = biological target: T7, human H1 receptors (Homo sapiens, UniProt P35367); assay: hH1 receptor radioligand binding ([3H]Pyrilamine); details: pKi reported on a scale of 1 through 5
T7 construct: expressed in transfected cells; host or cells: Chinese hamster ovary cells (membranes)
Procedure: as §1, §2

[8] = biological target: T8, human 5HT7 receptors (Homo sapiens, UniProt P34969); assay: h5-HT7 receptor radioligand binding ([3H]5-CT)
T8 construct: expressed in transfected cells; host or cells: Chinese hamster ovary cells (membranes)
Procedure: as §1, §2

[9] = biological target: T9, human M1 receptors (Homo sapiens, UniProt P11229); assay: hM1 receptor radioligand binding ([3H]NMS); details: pKi reported on a scale of 1 through 5
T9 construct: expressed in transfected cells; host or cells: Chinese hamster ovary cells (membranes)
T9 sequence (P11229 1-460): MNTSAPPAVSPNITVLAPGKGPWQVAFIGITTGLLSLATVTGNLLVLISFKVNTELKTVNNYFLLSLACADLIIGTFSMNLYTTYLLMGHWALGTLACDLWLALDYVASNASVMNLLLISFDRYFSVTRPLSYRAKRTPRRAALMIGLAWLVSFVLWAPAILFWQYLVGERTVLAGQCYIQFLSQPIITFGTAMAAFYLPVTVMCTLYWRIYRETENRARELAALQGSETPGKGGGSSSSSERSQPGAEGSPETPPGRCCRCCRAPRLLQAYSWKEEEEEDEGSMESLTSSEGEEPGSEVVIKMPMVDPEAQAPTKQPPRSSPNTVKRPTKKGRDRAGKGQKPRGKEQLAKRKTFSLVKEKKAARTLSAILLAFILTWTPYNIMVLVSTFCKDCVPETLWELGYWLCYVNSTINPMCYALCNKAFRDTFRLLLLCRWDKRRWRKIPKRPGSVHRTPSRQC
Procedure: as §1, §2

[10] = read-out: 5HT2A (pKb) (converted)
[11] = pKi reported on a scale of 1 through 5, read-out: M3 (pKi) (converted)
[12] = pKi reported on a scale of 1 through 5, read-out: 5HT7 (pKi) (converted)

T7 sequence (P35367 whole entry): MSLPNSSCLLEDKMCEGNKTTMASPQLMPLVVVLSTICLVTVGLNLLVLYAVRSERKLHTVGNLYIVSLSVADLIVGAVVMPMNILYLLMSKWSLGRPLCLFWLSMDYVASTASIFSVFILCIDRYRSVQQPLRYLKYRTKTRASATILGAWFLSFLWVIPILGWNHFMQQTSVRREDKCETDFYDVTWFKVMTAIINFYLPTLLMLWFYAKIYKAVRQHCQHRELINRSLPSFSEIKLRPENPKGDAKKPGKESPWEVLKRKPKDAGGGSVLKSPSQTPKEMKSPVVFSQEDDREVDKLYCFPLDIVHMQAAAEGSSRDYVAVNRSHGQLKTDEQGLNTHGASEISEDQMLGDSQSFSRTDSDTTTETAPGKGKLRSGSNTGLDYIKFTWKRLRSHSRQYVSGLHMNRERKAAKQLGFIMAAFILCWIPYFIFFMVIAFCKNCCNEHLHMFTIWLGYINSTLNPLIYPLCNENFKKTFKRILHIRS
T6 sequence (P20309 whole entry): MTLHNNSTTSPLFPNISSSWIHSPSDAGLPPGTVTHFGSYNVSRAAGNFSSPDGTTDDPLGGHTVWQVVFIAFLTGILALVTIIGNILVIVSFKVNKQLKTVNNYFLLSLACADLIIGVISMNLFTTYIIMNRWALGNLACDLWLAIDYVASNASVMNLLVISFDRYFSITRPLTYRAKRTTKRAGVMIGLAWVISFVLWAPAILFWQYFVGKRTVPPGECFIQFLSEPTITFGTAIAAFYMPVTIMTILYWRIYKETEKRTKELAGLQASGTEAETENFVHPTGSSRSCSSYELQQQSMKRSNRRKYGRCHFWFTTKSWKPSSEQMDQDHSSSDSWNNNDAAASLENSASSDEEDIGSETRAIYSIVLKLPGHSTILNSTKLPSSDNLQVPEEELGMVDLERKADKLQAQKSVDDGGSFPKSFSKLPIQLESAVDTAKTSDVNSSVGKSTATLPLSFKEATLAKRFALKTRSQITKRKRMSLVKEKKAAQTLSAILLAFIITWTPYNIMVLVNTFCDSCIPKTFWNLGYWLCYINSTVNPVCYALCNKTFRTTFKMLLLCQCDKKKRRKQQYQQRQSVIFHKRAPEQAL
T3 sequence (P14416 whole entry): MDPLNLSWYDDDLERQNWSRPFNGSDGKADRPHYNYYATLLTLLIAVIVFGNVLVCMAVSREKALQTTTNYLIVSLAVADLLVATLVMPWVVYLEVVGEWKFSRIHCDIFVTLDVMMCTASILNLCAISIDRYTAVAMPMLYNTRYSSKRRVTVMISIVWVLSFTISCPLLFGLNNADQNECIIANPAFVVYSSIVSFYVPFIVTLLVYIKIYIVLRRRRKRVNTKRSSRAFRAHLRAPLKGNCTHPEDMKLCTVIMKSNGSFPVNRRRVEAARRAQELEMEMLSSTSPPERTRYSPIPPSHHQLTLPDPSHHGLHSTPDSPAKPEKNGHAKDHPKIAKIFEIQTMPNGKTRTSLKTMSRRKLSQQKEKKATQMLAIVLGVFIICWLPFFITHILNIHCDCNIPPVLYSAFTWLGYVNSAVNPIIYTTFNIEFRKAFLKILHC
T8 sequence (P34969 whole entry): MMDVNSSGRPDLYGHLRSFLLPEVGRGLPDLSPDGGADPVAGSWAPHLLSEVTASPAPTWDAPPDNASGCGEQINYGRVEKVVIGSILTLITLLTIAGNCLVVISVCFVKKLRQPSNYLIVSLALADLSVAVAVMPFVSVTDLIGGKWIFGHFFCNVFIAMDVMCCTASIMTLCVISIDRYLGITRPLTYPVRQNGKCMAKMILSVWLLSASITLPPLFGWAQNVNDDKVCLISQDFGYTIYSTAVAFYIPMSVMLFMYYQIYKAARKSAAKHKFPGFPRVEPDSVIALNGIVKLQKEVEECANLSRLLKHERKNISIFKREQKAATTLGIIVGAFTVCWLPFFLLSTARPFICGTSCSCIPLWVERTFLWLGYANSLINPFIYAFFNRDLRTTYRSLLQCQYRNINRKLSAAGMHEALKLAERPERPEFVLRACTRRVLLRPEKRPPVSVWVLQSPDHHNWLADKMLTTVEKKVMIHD
T2 sequence (P14416 1-414 isoform P14416-2): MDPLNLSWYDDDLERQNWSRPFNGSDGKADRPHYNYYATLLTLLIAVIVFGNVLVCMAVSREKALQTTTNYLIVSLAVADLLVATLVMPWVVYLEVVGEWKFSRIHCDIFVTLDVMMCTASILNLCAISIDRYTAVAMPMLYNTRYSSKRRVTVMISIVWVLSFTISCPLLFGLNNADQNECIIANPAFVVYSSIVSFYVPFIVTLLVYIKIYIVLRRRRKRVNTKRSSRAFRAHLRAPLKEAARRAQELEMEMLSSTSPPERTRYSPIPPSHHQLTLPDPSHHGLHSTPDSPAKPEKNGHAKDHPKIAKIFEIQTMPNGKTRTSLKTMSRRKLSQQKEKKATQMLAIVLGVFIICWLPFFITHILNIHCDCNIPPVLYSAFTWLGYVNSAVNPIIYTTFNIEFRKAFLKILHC
T1 sequence (P14842 whole entry): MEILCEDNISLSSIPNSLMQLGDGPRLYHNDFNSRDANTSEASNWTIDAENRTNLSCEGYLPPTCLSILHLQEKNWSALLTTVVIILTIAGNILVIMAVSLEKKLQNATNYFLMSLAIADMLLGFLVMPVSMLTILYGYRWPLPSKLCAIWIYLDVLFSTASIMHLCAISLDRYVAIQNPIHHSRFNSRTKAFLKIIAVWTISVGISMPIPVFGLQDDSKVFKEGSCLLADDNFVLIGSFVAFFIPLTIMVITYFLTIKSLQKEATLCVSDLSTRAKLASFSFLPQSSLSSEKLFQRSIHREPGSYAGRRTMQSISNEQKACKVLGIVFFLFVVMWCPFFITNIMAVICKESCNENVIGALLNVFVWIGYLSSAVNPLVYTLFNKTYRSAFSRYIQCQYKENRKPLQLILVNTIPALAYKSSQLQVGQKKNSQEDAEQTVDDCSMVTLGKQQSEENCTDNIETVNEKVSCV

| SMILES | Kb [1, 10] | Ki [2] | Ki [3] | Ki [4] | Ki [5] | Ki [6, 11] | Ki [7] | Ki [8, 12] | Ki [9] | Kb [1] | Ki [6] | Ki [8] |
| --- | --- | --- | --- | --- | --- | --- | --- | --- | --- | --- | --- | --- |
| O=C(O)C[C@@H]1CN(C2=Nc3cc(Cl)ccc3Oc3ccccc32)CCN1 [AB, (R,E)-2-(4-(8-chlorodibenzo[b,f][1,4]oxazepin-11-yl)piperazin-2-yl)acetic acid] | 31.6 to 97.7 nM | > 10000 nM | > 10 µM | > 10000 nM | 100 to 977 nM | > 10 µM | 100 to 977 nM |  |  |  |  |  |
| COC(C)(C)CCOC(=O)C[C@H]1CN(C2=Nc3cc(Cl)ccc3Oc3ccccc32)CCN1 [EB, (S,E)-3-methoxy-3-methylbutyl 2-(4-(8-chlorodibenzo[b,f][1,4]oxazepin-11-yl)piperazin-2-yl)acetate] | 10 to 30.9 nM | 631 to 2450 nM |  | ≤ 9.77 nM | 10 to 97.7 nM | > 10 µM | 10 to 97.7 nM | 1580 to 3890 nM | 5.01 to 9.77 µM |  |  |  |
| CCOC(=O)CC1CN(C2=Nc3cc(Cl)ccc3Oc3ccccc32)CCN1C (centres unmarked) [DN, (E)-ethyl 2-(4-(8-chlorodibenzo[b,f][1,4]oxazepin-11-yl)-1-methylpiperazin-2-yl)acetate] | 31.6 to 97.7 nM | 2510 to 9770 nM | 2.51 to 9.77 µM |  | 100 to 977 nM | > 10 µM | 100 to 977 nM |  | 2.51 to 4.9 µM |  |  |  |
| COC(=O)CC1CN(C2=Nc3cc(Cl)ccc3Oc3ccccc32)CCN1 (centres unmarked) [I, (E)-methyl 2-(4-(8-chlorodibenzo[b,f][1,4]oxazepin-11-yl)piperazin-2-yl)acetate] | 10 to 30.9 nM | 2510 to 9770 nM | 2.51 to 9.77 µM | 100 to 977 nM | 10 to 97.7 nM | > 10 µM | 100 to 977 nM |  | 5.01 to 9.77 µM |  |  |  |
| C[C@H](O)C[C@H](C)OC(=O)C[C@H]1CN(C2=Nc3cc(Cl)ccc3Oc3ccccc32)CCN1 [EO, (2S,4S)-4-hydroxypentan-2-yl 2-((S)-4-((E)-8-chlorodibenzo[b,f][1,4]oxazepin-11-yl)piperazin-2-yl)acetate] | 10 to 30.9 nM | 631 to 2450 nM |  | ≤ 9.77 nM | 10 to 97.7 nM | > 10 µM | 10 to 97.7 nM | 631 to 1550 nM | > 10 µM |  |  |  |
| O=C(O)CC1CN(C2=Nc3cc(Cl)ccc3Oc3ccccc32)CCN1 (centres unmarked) [Compound E, (E)-2-(4-(8-chlorodibenzo[b,f][1,4]oxazepin-11-yl)piperazin-2-yl)acetic acid] | 31.6 to 97.7 nM | > 10000 nM | > 10 µM | 1000 to 9770 nM | 100 to 977 nM | > 10 µM | 100 to 977 nM |  | > 10 µM |  |  |  |
| CCOC(=O)C[C@@H]1CN(C2=Nc3cc(Cl)ccc3Oc3ccccc32)CCN1 [O, (R,E)-ethyl 2-(4-(8-chlorodibenzo[b,f][1,4]oxazepin-11-yl)piperazin-2-yl)acetate] | 31.6 to 97.7 nM | 2510 to 9770 nM | 2.51 to 9.77 µM | 100 to 977 nM | 10 to 97.7 nM | > 10 µM | 100 to 977 nM |  |  |  |  |  |
| COC(=O)C[C@@H]1CN(C2=Nc3cc(Cl)ccc3Oc3ccccc32)CCN1 [Compound P, (R,E)-methyl 2-(4-(8-chlorodibenzo[b,f][1,4]oxazepin-11-yl)piperazin-2-yl)acetate] | 31.6 to 97.7 nM | 2510 to 9770 nM | 2.51 to 9.77 µM | 1000 to 9770 nM | 100 to 977 nM | > 10 µM | 100 to 977 nM |  |  |  |  |  |
| CN1CCN(C2=Nc3cc(Cl)ccc3Oc3ccccc32)C[C@@H]1CC(=O)O[C@@H]1CN2CCC1CC2 [DS, (S)-quinuclidin-3-yl 2-((S)-4-((E)-8-chlorodibenzo[b,f][1,4]oxazepin-11-yl)-1-methylpiperazin-2-yl)acetate] |  | > 10000 nM |  | 1000 to 9770 nM | 1000 to 9770 nM |  |  |  |  | > 100 nM | > 10 µM | > 10000 nM |
| CC(C)(O)CCOC(=O)C[C@H]1CN(C2=Nc3cc(Cl)ccc3Oc3ccccc32)CCN1 [EC, (S,E)-3-hydroxy-3-methylbutyl 2-(4-(8-chlorodibenzo[b,f][1,4]oxazepin-11-yl)piperazin-2-yl)acetate] | 10 to 30.9 nM | 631 to 2450 nM |  | 10 to 97.7 nM | 10 to 97.7 nM | > 10 µM | 10 to 97.7 nM | 631 to 1550 nM | > 10 µM |  |  |  |
| CN1CCN(C2=Nc3cc(Cl)ccc3Oc3ccccc32)C[C@@H]1CC(=O)OC1CCOCC1 [DZ, (S,E)-tetrahydro-2H-pyran-4-yl 2-(4-(8-chlorodibenzo[b,f][1,4]oxazepin-11-yl)-1-methylpiperazin-2-yl)acetate] | 31.6 to 97.7 nM | 2510 to 9770 nM |  | 100 to 977 nM | 100 to 977 nM | > 10 µM |  | > 10000 nM |  |  |  |  |
| CC(C)(C)COC(=O)C[C@H]1CN(C2=Nc3cc(Cl)ccc3Oc3ccccc32)CCN1 [EA, (S,E)-neopentyl 2-(4-(8-chlorodibenzo[b,f][1,4]oxazepin-11-yl)piperazin-2-yl)acetate] | 10 to 30.9 nM | 2510 to 9770 nM |  | 10 to 97.7 nM | 10 to 97.7 nM | > 10 µM | 100 to 977 nM | > 10000 nM | 1.26 to 2.45 µM |  |  |  |
| CCOC(=O)CC1CN(C2=Nc3ccc(Cl)cc3Oc3ccccc32)CCN1 (centres unmarked) [H, (E)-ethyl 2-(4-(7-chlorodibenzo[b,f][1,4]oxazepin-11-yl)piperazin-2-yl)acetate] | 31.6 to 97.7 nM | 631 to 2450 nM | 0.631 to 2.45 µM |  | 10 to 97.7 nM | > 10 µM | 100 to 977 nM |  | > 10 µM |  |  |  |
